Laboratory results taken from ChEMBL document CHEMBL1131845, “Naphthazarin derivatives (II): formation of glutathione conjugate, inhibition of DNA topoisomerase-I and cytotoxicity” (Bioorg Med Chem Lett, 1999).
≈ marks a conversion by molar mass, not a printed value.

How the values were obtained:
L1210 = test: Cytotoxicity against L1210 cells; type: functional; conditions: Mus musculus, read-out: ED50 (the source's name)
[1] = Concentration formed during 5 min incubation of quinone (1 mM) with GSH (5 mM)

Row | Concentration [1] | SMILES | EC50 (L1210)
1 | 0.295 mM | CCC(O)c1cc(OC)c2c(c1OC)C(=O)C=CC2=O (stereo not given) | 0.085 µg/mL (≈ 0.308 µM)
2 |  | CCCCC(O)c1cc(OC)c2c(c1OC)C(=O)C=CC2=O (stereo not given) | 0.057 µg/mL (≈ 0.187 µM)
3 | 0.131 mM | CCCCC(O)C1=CC(=O)c2c(OC)ccc(OC)c2C1=O (stereo not given) | 0.412 µg/mL (≈ 1.35 µM)
4 | 0.072 mM | CCCCCCC(O)C1=CC(=O)c2c(OC)ccc(OC)c2C1=O (stereo not given) | 0.732 µg/mL (≈ 2.2 µM)
5 | 0.06 mM | CCCCCCCC(O)C1=CC(=O)c2c(OC)ccc(OC)c2C1=O (stereo not given) | 1.04 µg/mL (≈ 3.01 µM)
6 | 0.13 mM | COc1ccc(OC)c2c1C(=O)C=C(CO)C2=O | 0.524 µg/mL (≈ 2.11 µM)
7 | 0.125 mM | COc1ccc(OC)c2c1C(=O)C=C(C(C)O)C2=O (stereo not given) | 0.487 µg/mL (≈ 1.86 µM)
8 | 0.182 mM | CCCCCCC(O)c1cc(OC)c2c(c1OC)C(=O)C=CC2=O (stereo not given) | 0.22 µg/mL (≈ 0.662 µM)
9 | 0.314 mM | COc1cc(CO)c(OC)c2c1C(=O)C=CC2=O | 0.062 µg/mL (≈ 0.25 µM)
10 | 0.116 mM | CCCC(O)C1=CC(=O)c2c(OC)ccc(OC)c2C1=O (stereo not given) | 0.409 µg/mL (≈ 1.41 µM)
11 | 0.137 mM | CCCCCCCC(O)c1cc(OC)c2c(c1OC)C(=O)C=CC2=O (stereo not given) | 0.274 µg/mL (≈ 0.791 µM)
12 | 0.084 mM | CCC(O)C1=CC(=O)c2c(OC)ccc(OC)c2C1=O (stereo not given) | 0.516 µg/mL (≈ 1.87 µM)
13 |  | CCCC(O)c1cc(OC)c2c(c1OC)C(=O)C=CC2=O (stereo not given) | 0.043 µg/mL (≈ 0.148 µM)
14 | 0.304 mM | COc1cc(C(C)O)c(OC)c2c1C(=O)C=CC2=O (stereo not given) | 0.132 µg/mL (≈ 0.503 µM)
15 | 0.28 mM | CCCCCC(O)c1cc(OC)c2c(c1OC)C(=O)C=CC2=O (stereo not given) | 0.066 µg/mL (≈ 0.207 µM)
16 | 0.124 mM | CCCCCC(O)C1=CC(=O)c2c(OC)ccc(OC)c2C1=O (stereo not given) | 0.378 µg/mL (≈ 1.19 µM)
